{"source": "paper PMC2219262", "about": "(The Journal of General Physiology, 1996)", "key": {"IK in GH3 cells": {"tested_on": "IK in GH3 cells", "type": "cell-based, rat", "conditions": "read-out: apparent KD for IK block"}, "Na+ current (INa)": {"target": "Na+ current (INa) (Doryteuthis opalescens, UniProt Q25377)", "sequence (Q25377 1-1784)": "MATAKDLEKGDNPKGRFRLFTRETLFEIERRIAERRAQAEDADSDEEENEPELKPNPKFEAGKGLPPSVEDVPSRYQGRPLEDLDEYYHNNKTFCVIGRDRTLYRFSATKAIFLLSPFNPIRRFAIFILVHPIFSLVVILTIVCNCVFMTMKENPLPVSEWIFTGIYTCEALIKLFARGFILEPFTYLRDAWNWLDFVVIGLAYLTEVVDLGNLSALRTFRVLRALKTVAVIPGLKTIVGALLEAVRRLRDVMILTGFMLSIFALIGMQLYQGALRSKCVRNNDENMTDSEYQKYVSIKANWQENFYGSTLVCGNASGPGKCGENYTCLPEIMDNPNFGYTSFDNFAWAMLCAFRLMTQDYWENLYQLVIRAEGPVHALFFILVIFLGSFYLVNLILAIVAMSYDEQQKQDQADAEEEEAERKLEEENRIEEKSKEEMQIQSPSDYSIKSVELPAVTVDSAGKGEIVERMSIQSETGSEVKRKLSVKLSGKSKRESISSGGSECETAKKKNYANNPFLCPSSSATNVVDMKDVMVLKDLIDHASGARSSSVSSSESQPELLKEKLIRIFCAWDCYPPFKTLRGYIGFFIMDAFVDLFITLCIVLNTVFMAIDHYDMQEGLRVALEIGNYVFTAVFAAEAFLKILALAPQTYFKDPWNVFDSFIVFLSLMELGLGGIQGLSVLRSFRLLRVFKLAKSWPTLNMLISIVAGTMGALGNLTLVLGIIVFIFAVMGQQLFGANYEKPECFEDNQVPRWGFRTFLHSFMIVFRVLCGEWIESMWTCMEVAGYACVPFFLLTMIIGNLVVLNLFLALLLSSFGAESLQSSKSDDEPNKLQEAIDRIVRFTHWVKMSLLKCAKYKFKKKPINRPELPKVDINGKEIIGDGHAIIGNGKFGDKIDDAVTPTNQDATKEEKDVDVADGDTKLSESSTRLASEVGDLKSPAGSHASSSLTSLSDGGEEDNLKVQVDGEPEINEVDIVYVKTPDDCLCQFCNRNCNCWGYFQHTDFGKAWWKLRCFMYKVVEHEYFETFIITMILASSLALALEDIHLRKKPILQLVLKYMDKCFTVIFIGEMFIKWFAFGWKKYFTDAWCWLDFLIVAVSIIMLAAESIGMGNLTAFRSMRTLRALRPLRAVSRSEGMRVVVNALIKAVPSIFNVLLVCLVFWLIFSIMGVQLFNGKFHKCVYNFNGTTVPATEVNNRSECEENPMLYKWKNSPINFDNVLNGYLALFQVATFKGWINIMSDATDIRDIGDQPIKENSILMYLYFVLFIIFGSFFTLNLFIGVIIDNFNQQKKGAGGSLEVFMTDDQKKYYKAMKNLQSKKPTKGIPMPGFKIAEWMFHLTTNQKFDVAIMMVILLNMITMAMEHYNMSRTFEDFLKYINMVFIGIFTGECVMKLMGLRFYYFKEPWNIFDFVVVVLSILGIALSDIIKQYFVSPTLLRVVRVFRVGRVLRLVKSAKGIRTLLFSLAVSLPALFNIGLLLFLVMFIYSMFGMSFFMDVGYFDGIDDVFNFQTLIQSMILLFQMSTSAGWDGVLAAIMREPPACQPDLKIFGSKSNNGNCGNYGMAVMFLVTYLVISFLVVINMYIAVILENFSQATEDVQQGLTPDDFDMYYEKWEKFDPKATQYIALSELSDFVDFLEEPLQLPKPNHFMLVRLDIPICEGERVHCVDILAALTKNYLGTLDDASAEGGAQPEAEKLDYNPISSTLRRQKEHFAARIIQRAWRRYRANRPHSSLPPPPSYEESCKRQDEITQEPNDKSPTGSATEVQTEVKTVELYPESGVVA", "type": "cell-based, squid Loligo opalescens"}, "[1]": {"target": "K+ current (IK), K channels (Doryteuthis opalescens, UniProt Q25376)", "sequence (Q25376 1-488)": "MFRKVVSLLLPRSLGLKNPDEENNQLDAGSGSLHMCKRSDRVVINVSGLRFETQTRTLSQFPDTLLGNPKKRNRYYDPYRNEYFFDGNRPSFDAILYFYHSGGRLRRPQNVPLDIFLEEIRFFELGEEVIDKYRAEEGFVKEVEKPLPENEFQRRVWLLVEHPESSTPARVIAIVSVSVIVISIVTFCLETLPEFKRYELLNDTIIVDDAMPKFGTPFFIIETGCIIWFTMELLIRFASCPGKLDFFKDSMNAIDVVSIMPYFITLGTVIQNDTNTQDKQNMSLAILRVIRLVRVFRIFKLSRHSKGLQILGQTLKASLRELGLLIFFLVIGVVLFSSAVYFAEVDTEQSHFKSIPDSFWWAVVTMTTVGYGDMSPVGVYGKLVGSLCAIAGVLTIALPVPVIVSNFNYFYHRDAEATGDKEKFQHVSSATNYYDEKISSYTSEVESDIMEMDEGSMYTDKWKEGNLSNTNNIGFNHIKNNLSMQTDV", "type": "cell-based, squid Loligo opalescens"}, "Ca2+ current (ICa)": {"tested_on": "Ca2+ current (ICa)", "type": "cell-based, squid Loligo opalescens"}, "pKa of methadone": {"test": "pKa of methadone", "type": "physicochemical", "conditions": "implied by pKa"}, "[2]": {"conditions": "ref Kaufman et al., 1975; cited from earlier work"}, "[3]": {"conditions": "Fig. 4: 100 μM, +80 mV, 100K//200K"}, "[4]": {"conditions": "Fig. 12 A: 100 μM, +60 mV, 10K//100K, model C"}, "[5]": {"conditions": "Fig. 12 B: 10 °C, 100 μM, +60 mV, 10K//50K"}, "[6]": {"conditions": "Fig. 12 B: 20 °C, 100 μM, +60 mV, 10K//50K"}}, "note": "Values joined by “and” are separate entries in the source; they are usually repeats but may differ in a detail not shown here. Identical values can stand only once. “Also recorded” adds a separate entry of the source. Like-named read-outs stand apart in the source and are kept apart here.", "data": [{"compound": "CCC(=O)O[C@](Cc1ccccc1)(c1ccccc1)[C@H](C)CN(C)C", "note": "[propoxyphene]", "values": [{"measurement": "Kd", "setting": "IK in GH3 cells", "value": "31 µM and ~30 µM"}]}, {"compound": "CCC(=O)C(CC(C)[N+](C)(C)C)(c1ccccc1)c1ccccc1.[I-]", "note": "(centres unmarked) [N-methyl-methadone]", "values": [{"measurement": "effect on INa when applied externally", "setting": "Na+ current (INa); 1 mM external", "value": "no effect"}, {"measurement": "effect on IK when applied externally", "setting": "[1]; 1 mM external", "value": "without effect; also recorded: no effect"}, {"measurement": "effect of changes in external pH on IK block", "setting": "[1]; internally applied, data not shown", "value": "do not affect"}, {"measurement": "effect on ICa when applied externally", "setting": "Ca2+ current (ICa); 1 mM external", "value": "no effect"}]}, {"compound": "CCC(=O)C(CC(C)N(C)C)(c1ccccc1)c1ccccc1", "note": "(centres unmarked) [methadone]", "values": [{"measurement": "fraction of drug molecules charged at physiological pH", "setting": "pKa of methadone", "value": "> 99", "unit": "%"}, {"measurement": "pKa", "setting": "[2]", "value": 9.64}, {"measurement": "ICa block at small depolarizations", "setting": "Ca2+ current (ICa); -10 and -20 mV, 200 and 500 μM methadone", "value": "Little or no block"}]}, {"compound": "(±)methadone", "values": [{"measurement": "use-dependent effect on peak INa", "setting": "Na+ current (INa); 50 μM, repetitive depolarization to +10 mV at 4 Hz", "value": "no detectable effect"}, {"measurement": "use-dependent reduction in peak INa amplitude", "setting": "Na+ current (INa); 50 μM, repetitive depolarization to +70 mV, 5-ms pulses at 4 Hz, Hp -80 mV", "value": 20, "unit": "%"}]}, {"compound": "CCC(=O)C(C[C@@H](C)N(C)C)(c1ccccc1)c1ccccc1", "note": "[(-)methadone]", "values": [{"measurement": "factor of increase of rate of block (K) from 10 to 20 °C", "setting": "[1]", "value": 2.1}, {"measurement": "steady state IK as % of control", "setting": "[1]; 100 μM, 25-ms depolarization to +80 mV, 100K//200K", "value": 27, "unit": "%"}, {"measurement": "rate of block (K)", "setting": "[1]; [3]", "value": "2.6 ms-1 mM-1"}, {"measurement": "rate of unblock (L)", "setting": "[1]; [3]", "value": 0.096, "unit": "ms-1"}, {"measurement": "rate of block (K)", "setting": "[1]; [4]", "value": "2.2 ms-1 mM-1"}, {"measurement": "rate of unblock (L)", "setting": "[1]; [4]", "value": 0.062, "unit": "ms-1"}, {"measurement": "rate of block (K)", "setting": "[1]; [5]", "value": "1.5 ms-1 mM-1"}, {"measurement": "rate of unblock (L)", "setting": "[1]; [5]", "value": 0.060, "unit": "ms-1"}, {"measurement": "rate of block (K)", "setting": "[1]; [6]", "value": "3.2 ms-1 mM-1"}, {"measurement": "rate of unblock (L)", "setting": "[1]; [6]", "value": 0.084, "unit": "ms-1"}]}, {"compound": "CCC(=O)C(C[C@H](C)N(C)C)(c1ccccc1)c1ccccc1", "note": "[(+)methadone]", "values": [{"measurement": "rate of block (K)", "setting": "[1]; [4]", "value": "2.3 ms-1 mM-1"}, {"measurement": "rate of unblock (L)", "setting": "[1]; [4]", "value": 0.142, "unit": "ms-1"}]}, {"compound": "C=CCN1CC[C@]23c4c5ccc(O)c4O[C@H]2C(=O)CC[C@@]3(O)[C@H]1C5", "note": "[naloxone]", "values": [{"measurement": "effect on the ability of methadone to block IK", "setting": "[1]; data not shown", "value": "did not prevent"}]}, {"compound": "CN1CC[C@]23c4c5ccc(O)c4O[C@H]2[C@@H](O)C=C[C@H]3[C@H]1C5", "note": "[morphine]", "values": [{"measurement": "effect on INa", "setting": "Na+ current (INa); 350 μM, data not shown", "value": "no detectable effect"}, {"measurement": "effect on IK", "setting": "[1]; 350 μM, +30 mV", "value": "no detectable effect"}, {"measurement": "effect on ICa", "setting": "Ca2+ current (ICa); 350 μM, data not shown", "value": "no detectable effect"}]}]}
